Where no end group is shown, it is not given here.
Columns and labels:
[1] = tested on: PI3K/AKT signaling pathway in cortical neurons after OGD damage; assay: OGD damage of cortical neurons with PI3K inhibitor LY-294002, Western blot of p-AKT and Cleaved caspase-3; type: cell-based, SD rat
[2] = tested on: primary cultured SD fetal rat cortical neurons after OGD damage; assay: OGD damage of cortical neurons, Hoechst 33258 staining of apoptotic bodies; type: cell-based; settings: OGD 2 h, 24 h reoxygenation; ABPPk2 8, 40, 200 ng/ml, dose-dependent; BDNF 10 ng/ml
Method: (§1) The suspension was filtered with a 400-mesh screen, centrifuged at 1000 rpm for 5 min, and blown to form the single cell suspension. DMEM high glucose complete medium (containing 10% fetal bovine serum) was inoculated in a culture dish or culture plate pre-coated with polylysine (PLL) to culture in 5% CO2 incubator with saturated humidity at 37° C. After the cells were cultured for 4 h to adhere to the wall, the cells were cultured with neuron culture medium (neurobasal+2% B27) for 3 d to observe the growth of neurons. The culture medium containing cytarabine (the final concentration of cytarabine was 2.5 μg/ml) was substituted with half quantity to culture for 3d to inhibit the growth of glial cells and miscellaneous cells to obtain purely cultured primary cortical nerve cells. The purity of the cortical neurons was identified by immunocytochemical staining as more than 90%.
After the cortical neurons were cultured to the 7th day, the original culture medium was sucked out, and the cells were rinsed twice with sugar-free DMEM basal medium, for 5 min each time. Each OGD damage group was added with DMEM sugar-free culture medium, placed in a Billups-Rothenberg anaerobic culture chamber, filled with 95% N2/5% CO2 to balance for 15 min, and sealed for 2 h to build an OGD model. […]

[3] = tested on: primary cultured SD fetal rat cortical neurons after OGD damage; assay: OGD damage of cortical neurons, mitochondrial membrane potential (JC-1, flow cytometer); type: cell-based; settings: OGD 2 h, 24 h reoxygenation; ABPPk2 8, 40, 200 ng/ml; obvious dose-effect relationship
Method: as §1, with “90%. […]” for “90%.”
(5) Effect of ABPPk2 on mitochondrial membrane potential of cortical neurons after OGD damage: cortical neurons were inoculated in a 6-well plate at 1×10^6 cells/ml; 2 ml of cell suspension was added to each well; and the cortical neurons were cultured to the 7th day. […] The mitochondrial membrane potential of the cortical neurons after OGD damage was detected by a JC-1 staining kit and a flow cytometer. […]

[4] = tested on: primary cultured SD fetal rat cortical neurons after OGD damage; assay: OGD damage of cortical neurons, ROS content (reactive oxygen detection kit); type: cell-based; settings: OGD 2 h, 24 h reoxygenation; ABPPk2 8, 40, 200 ng/ml; obvious dose-effect relationship
Method: as §1, with “90%. […]” for “90%.”
(6) Effect of ABPPk2 on ROS content of cortical neurons after OGD damage: cortical neurons were inoculated in a 6-well plate at 1×10^6 cells/ml; 2 ml of cell suspension was added to each well; and the cortical neurons were cultured to the 7th day. […] The effect of ABPPk2 on the ROS content of the cortical neurons after OGD damage was detected by a reactive oxygen detection kit.

[5] = after OGD and LY-294002 treatment, ABPPk2 high-dose group
[6] = after OGD damage, vs OGD group, ABPPk2 at high dose, LY-294002 30 min

“Cys-Leu-Glu-Ser-Gly-Thr-Ser-Cys-Ile-Pro-Gly-Ala-Gln-His-Asn-Cys-Cys-Ser-Gly-Val-Cys-Val-Pro-Ile-Val-Thr-Ile-Phe-Tyr-Gly-Val-Cys-Tyr (CLESGTSCIPGAQHNCCSGVCVPIVTIFYGVCY; disulfide (positions not given here); not fully specified (bridges); also: three disulfide bonds, pairing not given here) [ABPPk2, 33 amino acid polypeptide isolated from the extract of Achyranthes bidentata Blume, three pairs of disulfide bonds]” was tested, and the “expression of Cleaved caspase-3” value [1, 5] was “significantly down-regulated”, the “expression of p-AKT” value [1, 5] was “significantly up-regulated” and the “expression of Cleaved caspase-3” value [1, 6] was “significantly down-regulated”. For the same substance, the “expression of p-AKT” value [1, 6] was “significantly up-regulated”, the “apoptotic bodies of cortical neuron nuclei” value [2] was “the apoptotic bodies of the cortical neuron nuclei were reduced” and the mitochondrial membrane potential [3] was “can alleviate the decline in mitochondrial membrane potential”. For the same substance, the ROS content [4] was “can reduce the ROS content”.
